Counter-ions that a name gives are not always drawn.
Legend:
[1] = target: recombinant human N-type channels, h α1B (hCav2.2)+β1b+α2δ-1 subunits (Homo sapiens, UniProt Q00975); test: Patch clamp studies of calcium currents inhibition in HEK293 cells; format: cell-based; conditions: tonic block, preconditioning −50/−55 mV (half maximal steady-state inactivated condition); read-out: IC50 (Vhalf)
Experimental: Functional inhibition of the N-type Ca currents was studied using whole cell patch clamp methods (Hamill O. P., Marty A., Neher E., Sakmann B., Sigworth F. J. Pflugers Arch. (1981) 391: 85-100) on HEK293 cells expressing recombinant human N-type channels, obtained after transient transfection of h α1B (hCav2.2)+β1b+α2δ-1 subunits.
Membrane currents were recorded and filtered at 5 kHz with an Axon Axopatch 200B amplifier and digitized with an Axon Digidata 1322A (Axon Instruments, CA, USA). Voltage clamping of membrane potentials and data acquisition were controlled online with Axon pClamp8 software. Measuring and reference electrodes were AgCl—Ag electrodes. Cells had initial seal resistances of >1 GΩ and access resistances of 4.2±0.2 MΩ. Cells were continuously superfused with extracellular solutions using a Biologic RSC-200.
For calcium currents recording the control bath solution contained (mM): Choline chloride (70), MgCl2 (1), BaCl2 (20), TEA.Cl (50), Hepes (10), Glucose (10). Internal pipette solution consisted of (mM): CsCl (140), EGTA (10), MgCl2 (2), Hepes (10), MgATP (1), GTP Tris (0.3).
(§1) Compounds were dissolved as 20 mM stock solutions in DMSO and then diluted to the final concentration in the external solutions.
A two-step protocol was used to determine the voltage dependence of the block:
N-type current was activated by a 600 ms step pulse to +10 mV (test pulse) from a 5000 ms preconditioning potential of −110 mV (resting condition) or −50/−55 mV (half maximal steady-state inactivated condition), respectively.
The amplitude of calcium current peaks evoked by the respective test pulses at a frequency of 0.06 Hz were measured before and after exposure to the test substance. Tonic block of currents was calculated as the difference between the peak calcium current measured at the end of a stabilization period in the control external bath solution and peak currents measured at the end of test substance perfusion period (when steady state is reached) divided by control peaks. […]

[2] = tested on: L-type calcium channels; format: cell-based, mouse; conditions: AtT20/D16v-F2 cells, ω-conotoxin 1 μM, 100 mM KCl depolarization
[3] = target: T1, recombinant Nav 1.3 channels (Homo sapiens, UniProt Q9NY46); test: Patch clamp studies of sodium currents inhibition in HEK293 cells; format: cell-based; conditions: tonic block, preconditioning −50 mV (half maximal steady-state inactivated condition); read-out: IC50 (Vhalf)
T1 construct: expressed in transfected cells; host or cells: HEK293 cells
Experimental: Cells and methods: Functional inhibition of the sodium currents was studied using whole cell patch clamp methods (Hamill O. P., Marty A., Neher E., Sakmann B., Sigworth F. J., Pflugers Arch. (1981) 391 (2): 85-100) on HEK293 cells expressing recombinant Nav 1.3 channels. Membrane currents were recorded as described in the example above.
For sodium current recording control bath solution contained (mM): NaCl (80), Choline chloride (38), CaCl2 (1.3), MgCl2 (2), KCl (2), CdCl2 (0.4), NiCl2 (0.3), TEA.Cl (20), Hepes (10), Glucose (10). Internal pipette solution consisted of (mM): EGTA (10), NaCl (10), CaCl2 (1.3), MgCl2 (2), Hepes (10), CsF (130), MgATP (1).
as §1
Voltage protocols and data analyses: A two-step protocol was used to determine the voltage dependence of the block:
sodium current was activated by a 30 ms step pulse to 10 mV (test pulse) from a 2000 ms preconditioning potential of −100 mV (resting condition) or −50 mV (half maximal steady-state inactivated condition), respectively.
The amplitude of sodium current peaks evoked by the respective test pulses at a frequency of 0.06 Hz were measured before and after exposure to the test substance. Tonic block of currents was calculated as the difference between the Nacurrent peak measured at the end of a stabilization period in the control external bath solution and the current peak measured at the end of test substance perfusion period (when steady state is reached) divided by control peaks. Drug concentration-inhibition curves were obtained by plotting tonic blocks versus drug concentrations. Dose-response curves were fitted to the tonic block data, according to the logistic equation: y=A2+(A1−A2)/[1+(x/IC50)^p]. A1 and A2 are fixed values of 0 and 1 corresponding to 0 and 100% current inhibition, x is the drug concentration, IC50 is the drug concentration resulting in 50% current inhibition and p is the corresponding slope factor.

[4] = tested on: TTXs sodium channels; test: TTXs-sodium channel influx assay (membrane potential fluorescence); format: cell-based, rat; conditions: ND7/23 cells, veratridine 100 μM
Experimental: ND7/23 rat dorsal root ganglion-derived cell line endogenously expresses a mixed population of TTXs sodium channels (such as Nav1.3, Nav1.2, Nav1.1, Nav1.6). These cells lack of TTXr sodium channels as shown by the absence of their respective transcripts. ND7/23 cells were grown in DMEM supplemented with 10% FBS and 1 mM sodium piruvate.
The cells were seeded at 50,000 cells/well on 96 poly-L-lysine-coated plates and further incubated for 18-24 h before use.
The Membrane Potential Kit Assay (Molecular Devices), based on a negatively charged fluorescent dye able to monitor changes in membrane potential caused by the sodium influx due to the channel opening, was used for the assay.
Cells were incubated with the dye loading for 30 minutes at 25° C. Then, 100 nM of the toxin Anemonia sulcata (used as enhancer of the channel opener response) alone or in the presence of TTX (as reference standard) or test compound were added for further 15 minutes.
The fluorescence (excitation: 530 nm, emission: 565 nm wavelength) was measured before and after (40-45 s) the automated injection of the sodium channel opener veratridine (100 μM) using a Victor plate reader (Perkin Elmer).
The inhibition curves were calculated from 5 concentrations, each in triplicate, and the IC50 determined using a linear regression analysis.

[5] = target: N-type calcium channels (Homo sapiens, UniProt Q00975); test: N-type calcium channel influx assay (fluorescence); format: cell-based; conditions: differentiated IMR32 cells, nifedipine 1 μM, 100 mM KCl depolarization; read-out: IC50
N-type calcium channels, sequence (Q00975 whole entry): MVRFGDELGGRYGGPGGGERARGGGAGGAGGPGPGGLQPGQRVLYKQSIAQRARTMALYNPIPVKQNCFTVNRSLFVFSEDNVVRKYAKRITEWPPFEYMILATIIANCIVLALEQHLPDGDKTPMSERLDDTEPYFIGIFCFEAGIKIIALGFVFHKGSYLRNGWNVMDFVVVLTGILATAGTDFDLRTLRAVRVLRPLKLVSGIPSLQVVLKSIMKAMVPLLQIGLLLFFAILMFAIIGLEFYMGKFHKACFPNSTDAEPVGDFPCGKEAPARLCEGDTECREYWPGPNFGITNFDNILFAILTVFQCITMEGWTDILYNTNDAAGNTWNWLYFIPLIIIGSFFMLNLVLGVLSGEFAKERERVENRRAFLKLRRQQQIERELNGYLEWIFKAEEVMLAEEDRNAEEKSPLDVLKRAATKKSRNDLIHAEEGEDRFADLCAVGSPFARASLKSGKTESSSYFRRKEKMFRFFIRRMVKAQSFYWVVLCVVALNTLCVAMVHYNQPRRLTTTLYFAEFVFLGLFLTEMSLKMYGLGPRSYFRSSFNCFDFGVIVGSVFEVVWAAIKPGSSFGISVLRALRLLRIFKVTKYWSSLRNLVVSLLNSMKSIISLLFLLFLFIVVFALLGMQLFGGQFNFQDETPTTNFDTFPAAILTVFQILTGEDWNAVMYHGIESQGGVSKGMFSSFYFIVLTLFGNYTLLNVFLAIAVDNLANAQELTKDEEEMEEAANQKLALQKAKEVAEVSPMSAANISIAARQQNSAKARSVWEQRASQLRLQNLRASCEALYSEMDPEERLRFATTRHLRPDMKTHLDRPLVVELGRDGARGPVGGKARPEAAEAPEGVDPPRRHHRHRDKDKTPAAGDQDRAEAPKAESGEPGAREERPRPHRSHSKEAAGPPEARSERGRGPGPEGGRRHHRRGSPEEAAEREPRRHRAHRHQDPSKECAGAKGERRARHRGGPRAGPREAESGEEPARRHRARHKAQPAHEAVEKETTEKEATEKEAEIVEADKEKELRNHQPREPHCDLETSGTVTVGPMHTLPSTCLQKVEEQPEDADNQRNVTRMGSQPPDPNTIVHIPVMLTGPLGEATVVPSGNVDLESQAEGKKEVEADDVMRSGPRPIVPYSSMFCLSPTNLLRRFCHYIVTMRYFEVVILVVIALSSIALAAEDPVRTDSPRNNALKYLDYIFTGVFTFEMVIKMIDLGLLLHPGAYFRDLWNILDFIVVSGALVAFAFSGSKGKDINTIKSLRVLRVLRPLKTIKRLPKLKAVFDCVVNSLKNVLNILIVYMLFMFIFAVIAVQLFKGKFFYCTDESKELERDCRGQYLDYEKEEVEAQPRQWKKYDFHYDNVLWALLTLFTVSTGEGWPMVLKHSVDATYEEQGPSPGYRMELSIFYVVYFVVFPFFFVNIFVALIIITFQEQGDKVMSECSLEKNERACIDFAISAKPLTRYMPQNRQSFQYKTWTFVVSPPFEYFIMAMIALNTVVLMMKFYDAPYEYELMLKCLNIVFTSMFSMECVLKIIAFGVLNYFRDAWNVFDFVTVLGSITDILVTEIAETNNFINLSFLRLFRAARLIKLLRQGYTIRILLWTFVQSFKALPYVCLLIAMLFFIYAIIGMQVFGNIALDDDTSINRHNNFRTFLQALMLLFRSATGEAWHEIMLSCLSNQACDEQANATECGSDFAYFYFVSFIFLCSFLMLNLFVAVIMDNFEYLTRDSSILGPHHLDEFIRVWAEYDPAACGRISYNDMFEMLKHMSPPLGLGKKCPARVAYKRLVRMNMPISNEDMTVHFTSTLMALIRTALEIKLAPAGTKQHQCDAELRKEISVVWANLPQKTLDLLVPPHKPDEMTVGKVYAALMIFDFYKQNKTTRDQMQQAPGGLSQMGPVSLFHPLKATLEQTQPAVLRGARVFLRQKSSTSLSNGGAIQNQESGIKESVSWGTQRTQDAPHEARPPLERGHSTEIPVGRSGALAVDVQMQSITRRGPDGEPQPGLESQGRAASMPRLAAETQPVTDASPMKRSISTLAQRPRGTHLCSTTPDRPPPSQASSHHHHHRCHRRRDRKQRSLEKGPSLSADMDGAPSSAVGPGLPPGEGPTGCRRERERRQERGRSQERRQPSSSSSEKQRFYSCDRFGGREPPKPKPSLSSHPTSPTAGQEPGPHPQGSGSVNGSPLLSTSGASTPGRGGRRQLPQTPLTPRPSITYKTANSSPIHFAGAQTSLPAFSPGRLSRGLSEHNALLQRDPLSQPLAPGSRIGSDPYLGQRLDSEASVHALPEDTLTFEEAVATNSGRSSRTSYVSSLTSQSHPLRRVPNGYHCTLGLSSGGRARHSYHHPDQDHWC
N-type calcium channels, sequence (Q02641 whole entry partner): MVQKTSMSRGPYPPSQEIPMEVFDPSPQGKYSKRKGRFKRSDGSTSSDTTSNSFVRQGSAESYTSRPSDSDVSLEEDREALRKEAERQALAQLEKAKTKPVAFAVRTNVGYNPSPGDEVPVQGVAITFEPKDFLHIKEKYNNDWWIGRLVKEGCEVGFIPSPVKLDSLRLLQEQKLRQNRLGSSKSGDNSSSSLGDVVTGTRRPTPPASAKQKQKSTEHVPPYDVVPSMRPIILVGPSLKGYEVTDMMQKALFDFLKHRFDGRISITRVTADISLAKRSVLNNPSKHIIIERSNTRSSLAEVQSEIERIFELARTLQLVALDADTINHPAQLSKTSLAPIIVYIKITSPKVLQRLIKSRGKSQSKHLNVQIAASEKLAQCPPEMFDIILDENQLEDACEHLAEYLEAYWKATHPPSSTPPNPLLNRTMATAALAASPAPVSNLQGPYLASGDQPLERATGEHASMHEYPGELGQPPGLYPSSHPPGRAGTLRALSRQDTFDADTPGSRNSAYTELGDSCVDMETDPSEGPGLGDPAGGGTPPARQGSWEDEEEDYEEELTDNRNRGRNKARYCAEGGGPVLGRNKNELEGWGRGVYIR
N-type calcium channels, sequence (P54289 25-956 partner limits assumed): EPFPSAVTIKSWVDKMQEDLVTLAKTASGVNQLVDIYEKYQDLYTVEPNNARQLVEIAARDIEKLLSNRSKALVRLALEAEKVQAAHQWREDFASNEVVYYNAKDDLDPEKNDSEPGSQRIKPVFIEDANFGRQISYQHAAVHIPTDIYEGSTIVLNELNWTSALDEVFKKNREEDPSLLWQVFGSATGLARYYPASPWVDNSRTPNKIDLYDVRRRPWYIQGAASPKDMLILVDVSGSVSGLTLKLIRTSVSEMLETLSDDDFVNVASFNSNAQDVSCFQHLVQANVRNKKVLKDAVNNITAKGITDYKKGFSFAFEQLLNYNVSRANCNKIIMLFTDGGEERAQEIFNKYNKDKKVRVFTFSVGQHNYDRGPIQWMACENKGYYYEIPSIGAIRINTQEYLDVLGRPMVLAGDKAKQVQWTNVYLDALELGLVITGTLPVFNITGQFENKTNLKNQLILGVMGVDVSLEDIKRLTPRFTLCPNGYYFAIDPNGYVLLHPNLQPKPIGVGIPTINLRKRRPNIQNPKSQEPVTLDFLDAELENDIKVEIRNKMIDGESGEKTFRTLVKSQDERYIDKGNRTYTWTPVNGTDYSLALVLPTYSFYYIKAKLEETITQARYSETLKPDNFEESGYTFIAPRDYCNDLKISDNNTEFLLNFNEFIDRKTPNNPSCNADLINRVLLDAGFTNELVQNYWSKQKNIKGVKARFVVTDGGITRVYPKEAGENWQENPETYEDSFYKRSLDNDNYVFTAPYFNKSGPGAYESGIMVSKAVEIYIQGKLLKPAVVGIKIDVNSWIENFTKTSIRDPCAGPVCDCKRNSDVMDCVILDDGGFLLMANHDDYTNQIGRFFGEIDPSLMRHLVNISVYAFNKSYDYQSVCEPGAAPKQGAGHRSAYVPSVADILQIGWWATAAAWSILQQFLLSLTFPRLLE
N-type calcium channels, sequence (P54289 957-1103 partner limits assumed): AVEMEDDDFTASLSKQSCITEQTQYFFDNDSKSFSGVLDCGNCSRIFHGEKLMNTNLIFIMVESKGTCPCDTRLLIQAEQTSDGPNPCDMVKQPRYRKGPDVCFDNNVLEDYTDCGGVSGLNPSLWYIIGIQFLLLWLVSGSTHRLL

[6] = target: T2, MAO-B (Rattus norvegicus, UniProt P19643); test: In vitro MAO-B enzyme activity radioenzymatic assay; format: biochemical; conditions: 100 μM compound, rat brain crude mitochondrial fraction, 14C-PEA substrate
T2 construct: from tissue; host or cells: rat brain crude mitochondrial fraction
T2 sequence (P19643 1-520): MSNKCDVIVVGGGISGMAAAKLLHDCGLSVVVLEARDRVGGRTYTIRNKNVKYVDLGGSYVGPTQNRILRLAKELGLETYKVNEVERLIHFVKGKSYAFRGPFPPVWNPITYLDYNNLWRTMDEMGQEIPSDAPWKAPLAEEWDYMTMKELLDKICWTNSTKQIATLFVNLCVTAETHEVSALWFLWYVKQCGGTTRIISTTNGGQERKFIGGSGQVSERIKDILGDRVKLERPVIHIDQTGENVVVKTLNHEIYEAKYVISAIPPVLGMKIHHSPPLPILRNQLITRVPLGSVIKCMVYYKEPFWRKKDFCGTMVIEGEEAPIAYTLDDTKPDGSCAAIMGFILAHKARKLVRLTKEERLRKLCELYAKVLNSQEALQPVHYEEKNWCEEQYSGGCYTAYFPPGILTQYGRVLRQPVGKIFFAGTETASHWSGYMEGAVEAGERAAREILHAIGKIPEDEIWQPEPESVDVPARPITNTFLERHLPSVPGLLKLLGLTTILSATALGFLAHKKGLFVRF
Experimental: Male Wistar rats (Harlan, Italy—175-200 g) were sacrificed under light anaesthesia and brains were rapidly removed and homogenized in 8 volumes of ice-cold 0.32 M sucrose buffer containing 0.1 M EDTA, pH 7.4. The crude homogenate was centrifuged at 2220 rpm for 10 minutes and the supernatant recovered. The pellet was homogenized and centrifuged again. The two supernatants were pooled and centrifuged at 9250 rpm for 10 minutes at +4° C. The pellet was resuspended in fresh buffer and centrifuged at 11250 rpm for 10 minutes at +4° C. The resulting pellet was stored at −80° C.
The enzyme activities were assessed with a radioenzymatic assay using the substrates ^14C-serotonin (5-HT) and ^14C-phenylethylamine (PEA) for MAO-A and MAO-B, respectively.
The mitochondrial pellet (500 μg protein) was resuspended in 0.1 M phosphate buffer (pH 7.4). 500 μl of the suspension were added to a 50 μl solution of the test compound or buffer, and incubated for 30 min at 37° C. (preincubation) then the substrate (50 μl) was added. The incubation was carried out for 30 minutes at 37° C. (^14C-5-HT, 5 μM) or for 10 minutes at 37° C. (^14C-PEA, 0.5 μM).
The reaction was stopped by adding 0.2 ml of 37% HCl or perchloric acid. After centrifugation, the deaminated metabolites were extracted with 3 ml of diethyl ether (5-HT) or toluene (PEA) and the radioactive organic phase was measured by liquid scintillation spectrometry at 90% efficiency. The amount of neutral and/or acidic metabolites formed as a result of MAO activity was obtained by measuring the radioactivity of the eluate.
The activity of MAO in the sample, corresponding to a percentage of radioactivity compared with the control activity in the absence of the inhibitor, was expressed as nmoles of substrate transformed/mg protein/min.

[7] = tested on: maximal electroshock seizures in mice; test: Maximal electroshock test (MES) in mice; format: in vivo, mouse; conditions: i.v., 5 minutes before testing
Text: Animals and Apparatus: Male CDl mice weighing 25 g were used. The procedure described by White et al. (White H. S., Woodhead J. H., Franklin […]., and Wolf H. H. Antiepileptic Drugs (1995) 4th ed: 99-110, Raven Press, Ltd., New York) was followed. An Ugo Basile electroconvulsive generator (Model ECT UNIT 7801) was used to deliver an electrical stimulus sufficient to produce a hindlimb tonic extensor response in at least 97% of control animals. The stimulus was delivered intra-aurally through clip electrodes in mice (0.7 s of a 40 mA shock, with a pulse train of 80 Hz having a pulse duration of 0.4 ms). […] Ten mice were studied per group. Complete suppression of the hindlimb tonic extensor component of seizures was taken as evidence of anticonvulsant activity.

recombinant human N-type channels, h α1B (hCav2.2)+β1b+α2δ-1 subunits, sequence (Q00975 whole entry): as the sequence (Q00975 whole entry) above
recombinant human N-type channels, h α1B (hCav2.2)+β1b+α2δ-1 subunits, sequence (Q02641 whole entry partner): as the sequence (Q02641 whole entry partner) above
recombinant human N-type channels, h α1B (hCav2.2)+β1b+α2δ-1 subunits, sequence (P54289 25-956 partner limits assumed): as the sequence (P54289 25-956 partner limits assumed) above
recombinant human N-type channels, h α1B (hCav2.2)+β1b+α2δ-1 subunits, sequence (P54289 957-1103 partner limits assumed): as the sequence (P54289 957-1103 partner limits assumed) above

| SMILES | IC50 [1] [µM] | IC50 [2] [µM] | IC50 [3] [µM] | IC50 [4] [µM] | IC50 [5] [µM] | inhibition at 100 µM [6] [%] | 50% Protection [7] |
| --- | --- | --- | --- | --- | --- | --- | --- |
| CNC(=O)CN(CCc1ccc(OCc2cccc(F)c2)c(OC)c1)CC1CCOC1 (stereo not drawn) [Example 7, 2-[[2-[4-(3-Fluoro-benzyloxy)-3-methoxy-phenyl]-ethyl]-(tetrahydrofuran-3-ylmethyl)amino]-N-methyl-acetamide hydrochloride] | 11 | – | – | – | – | – | – |
| CNC(=O)CN(CCc1ccc(OCc2cccc(F)c2)c(OC)c1)CC1CC1 [Example 8, 2-[[2-[4-(3-Fluoro-benzyloxy)-3-methoxy-phenyl]-ethyl]-(cyclopropylmethyl)amino]-N-methyl-acetamide hydrochloride] | 5.2 | 3.8 | 9.8 | 3.5 | 2.1 | – | – |
| CNC(=O)CN(CCc1ccc(OCc2cccc(F)c2)c(OC)c1)Cc1ccc(OC)nc1 [Example 14, 2-[[2-[4-(3-Fluoro-benzyloxy)-3-methoxy-phenyl]-ethyl]-(6-methoxy-pyridin-3-ylmethyl)amino]-N-methyl-acetamide] | – | – | – | 2.9 | – | – | – |
| COc1cc(CCNC(C(=O)N2CCOCC2)c2ccccc2)ccc1OCc1cccc(F)c1 (stereo not drawn) [Example 33, 2-[2-[4-(3-Fluoro-benzyloxy)-3-methoxy-phenyl]-ethylamino]-1-(morpholin-4-yl)-2-phenyl-ethanone hydrochloride] | – | 7.1 | – | 2.1 | 6 | 0 | – |
| CCNC(=O)CN(CCc1ccc(OCc2cccc(F)c2)c(OC)c1)Cc1ccccc1 [Example 37, 2-[[2-[4-(3-Fluoro-benzyloxy)-3-methoxy-phenyl]-ethyl]-benzylamino]-N-ethyl-acetamide hydrochloride] | – | – | – | 1.2 | – | 4 | – |
| C[C@H](NCc1ccc(OCc2cccc(F)c2)cc1)C(N)=O [safinamide, (S)-(+)-2-[4-(3-fluoro-benzyloxy)-benzylamino]-propanamide, reference compound] | – | – | – | – | – | 100 | (4.0 mg/kg/iv) |
